Assay results from patent publication US10030020B2, “Spirocycle compounds and methods of making and using same” (Abide Therapeutics, Inc., priority 2016, dated 2018).
pIC50: −log10 of the molar value.

target: T1, ABHD6 (Mus musculus (Mouse), UniProt Q8R2Y0); assay: In vitro competitive activity-based protein profiling (mouse brain membrane fraction or cell lysates), ABHD6 band; format: biochemical; settings: 1 μM, mouse proteome; read-out: ABHD6 % Inh 1 μM (mouse)
In short: (§1)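 Competitive ABPP: proteome 1.0 mg/mL protein + inhibitor, 30 min, 37° C; FP-Rh probe (stock 50 μM in DMSO) added, 30 min, 37° C; SDS quench, SDS-PAGE, fluorescent band intensity read.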

T1 sequence (Q8R2Y0 whole entry): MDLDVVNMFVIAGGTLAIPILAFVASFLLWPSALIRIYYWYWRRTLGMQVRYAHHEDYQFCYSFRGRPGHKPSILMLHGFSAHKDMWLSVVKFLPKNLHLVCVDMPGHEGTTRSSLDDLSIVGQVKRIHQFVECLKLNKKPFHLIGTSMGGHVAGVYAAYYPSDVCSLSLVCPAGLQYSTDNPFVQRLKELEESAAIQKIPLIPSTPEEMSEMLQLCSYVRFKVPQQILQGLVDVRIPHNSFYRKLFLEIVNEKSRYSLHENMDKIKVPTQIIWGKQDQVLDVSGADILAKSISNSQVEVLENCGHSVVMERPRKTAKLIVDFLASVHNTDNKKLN

SMILES	inhibition at 1 µM [%]
O=C(O)[C@H]1CCCN(c2cc(C(F)(F)F)ccc2CN2CCCC23CCN(C(=O)OC(C(F)(F)F)C(F)(F)F)CC3)C1 [Example 217]	< 25
O=C(O)[C@@H]1CCCN(c2cc(C(F)(F)F)ccc2CN2CCCC23CCN(C(=O)OC(C(F)(F)F)C(F)(F)F)CC3)C1 [Example 214]	< 25

same assay, conditions: 1 μM, mouse; read-out: ABHD6 % Inh 1 μM (mouse)

SMILES	inhibition at 1 µM [%]
NC(=O)C1CCN(Cc2cc(C(F)(F)F)ccc2CN2CCCC23CCN(C(=O)OC(C(F)(F)F)C(F)(F)F)CC3)CC1 [Example 275]	25 to 75
O=C(O)C1CCN(Cc2cc(Cl)cc(CN3CCCC34CCN(C(=O)OC(C(F)(F)F)C(F)(F)F)CC4)c2)C1 (centres unmarked) [Example 272]	< 25
CS(=O)(=O)C1CN(c2cc(C(F)(F)F)ccc2CN2CCCC23CCN(C(=O)OC(C(F)(F)F)C(F)(F)F)CC3)C1 [Example 268]	25 to 75
O=C(O)C1CCN(Cc2cc(CN3CCCC34CCN(C(=O)OC(C(F)(F)F)C(F)(F)F)CC4)cc(C(F)(F)F)c2)CC1 [Example 244]	< 25
CC1(C(=O)O)CCCN(c2cc(CN3CCCC34CCN(C(=O)OC(C(F)(F)F)C(F)(F)F)CC4)cc(C(F)(F)F)c2)C1 (centres unmarked) [Example 221]	< 25
O=C(O)C1CCN(Cc2cc(C(F)(F)F)ccc2CN2CCCC23CCN(C(=O)OC(C(F)(F)F)C(F)(F)F)CC3)C1 (centres unmarked) [Example 262]	< 25

target: MAGL (Homo sapiens (Human), UniProt Q99685); assay: In vitro competitive activity-based protein profiling (human prefrontal cortex or cell membrane fractions; hMAGL expressed in HEK293T cells); format: biochemical; settings: human
In short: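 Human prefrontal cortex or cell membrane proteomes (1.0-2.0 mg/mL), or lysates of HEK293T cells expressing hMAGL diluted into mock proteome, preincubated with inhibitor 30 min at 37° C. FP-Rh or JW912 probe then added for 30 min at room temperature. Residual labeling resolved by SDS-PAGE.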

MAGL (Homo sapiens (Human), UniProt Q99685), sequence (Q99685 whole entry): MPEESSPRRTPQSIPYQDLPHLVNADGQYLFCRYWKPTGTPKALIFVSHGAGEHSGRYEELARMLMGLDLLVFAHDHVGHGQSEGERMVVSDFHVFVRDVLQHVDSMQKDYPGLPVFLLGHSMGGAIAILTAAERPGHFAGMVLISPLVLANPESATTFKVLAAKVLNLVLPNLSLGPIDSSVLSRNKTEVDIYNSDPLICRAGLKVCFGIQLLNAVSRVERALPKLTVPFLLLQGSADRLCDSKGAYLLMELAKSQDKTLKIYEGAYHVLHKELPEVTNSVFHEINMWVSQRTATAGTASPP

SMILES	pIC50
NC(=O)C1CCN(Cc2cc(C(F)(F)F)ccc2CN2CCCC23CCN(C(=O)OC(C(F)(F)F)C(F)(F)F)CC3)CC1 [Example 275]	> 7.00
O=C(O)C1CCN(Cc2cc(Cl)cc(CN3CCCC34CCN(C(=O)OC(C(F)(F)F)C(F)(F)F)CC4)c2)C1 (centres unmarked) [Example 272]	> 7.00
CS(=O)(=O)C1CN(c2cc(C(F)(F)F)ccc2CN2CCCC23CCN(C(=O)OC(C(F)(F)F)C(F)(F)F)CC3)C1 [Example 268]	> 7.00
O=C(O)C1CCN(Cc2cc(CN3CCCC34CCN(C(=O)OC(C(F)(F)F)C(F)(F)F)CC4)cc(C(F)(F)F)c2)CC1 [Example 244]	> 7.00
CC1(C(=O)O)CCCN(c2cc(CN3CCCC34CCN(C(=O)OC(C(F)(F)F)C(F)(F)F)CC4)cc(C(F)(F)F)c2)C1 (centres unmarked) [Example 221]	> 7.00
O=C(O)C1CCN(Cc2cc(C(F)(F)F)ccc2CN2CCCC23CCN(C(=O)OC(C(F)(F)F)C(F)(F)F)CC3)C1 (centres unmarked) [Example 262]	> 7.00

same assay, conditions: human proteome, competitive ABPP

SMILES	pIC50
O=C(O)[C@H]1CCCN(c2cc(C(F)(F)F)ccc2CN2CCCC23CCN(C(=O)OC(C(F)(F)F)C(F)(F)F)CC3)C1 [Example 217]	> 7.00
O=C(O)[C@@H]1CCCN(c2cc(C(F)(F)F)ccc2CN2CCCC23CCN(C(=O)OC(C(F)(F)F)C(F)(F)F)CC3)C1 [Example 214]	> 7.00

target: T2, MAGL (Mus musculus (Mouse), UniProt O35678); assay: Mouse brain proteomes from inhibitor treated mice (oral gavage, sacrificed 4 h after administration, ABPP analysis); format: in vivo, mouse (C57Bl/6J); settings: 5 mg/kg oral gavage
In short: (§2)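 Values give % inhibition in brain after a 5 mg/kg oral gavage dose to wild-type C57Bl/6J mice, with vehicle e.g. PEG400/Ethanol/PBS (7/2/1). Animals were killed 4 h post-dose and brain proteome activity was read by ABPP.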

T2 sequence (O35678 whole entry): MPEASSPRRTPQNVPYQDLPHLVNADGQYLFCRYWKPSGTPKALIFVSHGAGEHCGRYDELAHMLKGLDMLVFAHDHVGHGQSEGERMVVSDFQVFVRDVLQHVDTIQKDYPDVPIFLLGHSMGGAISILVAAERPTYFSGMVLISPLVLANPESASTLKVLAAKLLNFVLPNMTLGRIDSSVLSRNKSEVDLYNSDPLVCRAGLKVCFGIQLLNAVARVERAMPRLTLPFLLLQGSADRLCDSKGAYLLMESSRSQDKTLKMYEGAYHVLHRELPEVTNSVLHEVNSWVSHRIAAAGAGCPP

SMILES	MAGL % Inh 5 mg/kg (mouse)
NC(=O)C1CCN(Cc2cc(C(F)(F)F)ccc2CN2CCCC23CCN(C(=O)OC(C(F)(F)F)C(F)(F)F)CC3)CC1 [Example 275]	### (### is ≥75%)
O=C(O)C1CCN(Cc2cc(Cl)cc(CN3CCCC34CCN(C(=O)OC(C(F)(F)F)C(F)(F)F)CC4)c2)C1 (centres unmarked) [Example 272]	### (### is ≥75%)
CS(=O)(=O)C1CN(c2cc(C(F)(F)F)ccc2CN2CCCC23CCN(C(=O)OC(C(F)(F)F)C(F)(F)F)CC3)C1 [Example 268]	## (## is equal to or greater than 25% but less than 75%)
O=C(O)[C@H]1CCCN(c2cc(C(F)(F)F)ccc2CN2CCCC23CCN(C(=O)OC(C(F)(F)F)C(F)(F)F)CC3)C1 [Example 217]	### (### is ≥75%)
O=C(O)C1CCN(Cc2cc(CN3CCCC34CCN(C(=O)OC(C(F)(F)F)C(F)(F)F)CC4)cc(C(F)(F)F)c2)CC1 [Example 244]	### (### is ≥75%)
O=C(O)[C@@H]1CCCN(c2cc(C(F)(F)F)ccc2CN2CCCC23CCN(C(=O)OC(C(F)(F)F)C(F)(F)F)CC3)C1 [Example 214]	### (### is ≥75%)
CC1(C(=O)O)CCCN(c2cc(CN3CCCC34CCN(C(=O)OC(C(F)(F)F)C(F)(F)F)CC4)cc(C(F)(F)F)c2)C1 (centres unmarked) [Example 221]	### (### is ≥75%)
O=C(O)C1CCN(Cc2cc(C(F)(F)F)ccc2CN2CCCC23CCN(C(=O)OC(C(F)(F)F)C(F)(F)F)CC3)C1 (centres unmarked) [Example 262]	## (## is equal to or greater than 25% but less than 75%)

target: T3, FAAH (Mus musculus (Mouse), UniProt O08914); assay: Mouse brain proteomes from inhibitor treated mice (oral gavage, sacrificed 4 h after administration, ABPP analysis), FAAH; format: in vivo, mouse (C57Bl/6J); settings: 5 mg/kg oral gavage
In short: as §2

T3 sequence (O08914 whole entry): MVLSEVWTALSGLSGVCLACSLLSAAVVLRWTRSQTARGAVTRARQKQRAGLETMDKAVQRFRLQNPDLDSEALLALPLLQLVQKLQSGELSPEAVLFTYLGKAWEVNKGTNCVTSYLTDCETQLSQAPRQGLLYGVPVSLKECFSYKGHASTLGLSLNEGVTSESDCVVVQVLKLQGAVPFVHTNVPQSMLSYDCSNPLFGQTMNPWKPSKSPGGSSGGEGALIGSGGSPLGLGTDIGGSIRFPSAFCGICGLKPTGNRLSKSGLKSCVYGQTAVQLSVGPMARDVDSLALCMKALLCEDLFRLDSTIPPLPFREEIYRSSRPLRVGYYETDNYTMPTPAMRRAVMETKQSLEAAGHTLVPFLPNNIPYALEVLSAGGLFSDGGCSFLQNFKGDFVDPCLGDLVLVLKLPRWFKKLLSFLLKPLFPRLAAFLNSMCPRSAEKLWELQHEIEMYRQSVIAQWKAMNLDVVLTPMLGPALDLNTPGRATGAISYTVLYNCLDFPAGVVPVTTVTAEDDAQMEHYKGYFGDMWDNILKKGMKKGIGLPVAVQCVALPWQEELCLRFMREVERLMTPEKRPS

SMILES	FAAH % Inh 5 mg/kg (mouse)
NC(=O)C1CCN(Cc2cc(C(F)(F)F)ccc2CN2CCCC23CCN(C(=O)OC(C(F)(F)F)C(F)(F)F)CC3)CC1 [Example 275]	# (# is <25%)
O=C(O)C1CCN(Cc2cc(Cl)cc(CN3CCCC34CCN(C(=O)OC(C(F)(F)F)C(F)(F)F)CC4)c2)C1 (centres unmarked) [Example 272]	# (# is <25%)
CS(=O)(=O)C1CN(c2cc(C(F)(F)F)ccc2CN2CCCC23CCN(C(=O)OC(C(F)(F)F)C(F)(F)F)CC3)C1 [Example 268]	# (# is <25%)
O=C(O)[C@H]1CCCN(c2cc(C(F)(F)F)ccc2CN2CCCC23CCN(C(=O)OC(C(F)(F)F)C(F)(F)F)CC3)C1 [Example 217]	# (# is <25%)
O=C(O)C1CCN(Cc2cc(CN3CCCC34CCN(C(=O)OC(C(F)(F)F)C(F)(F)F)CC4)cc(C(F)(F)F)c2)CC1 [Example 244]	# (# is <25%)
O=C(O)[C@@H]1CCCN(c2cc(C(F)(F)F)ccc2CN2CCCC23CCN(C(=O)OC(C(F)(F)F)C(F)(F)F)CC3)C1 [Example 214]	# (# is <25%)
CC1(C(=O)O)CCCN(c2cc(CN3CCCC34CCN(C(=O)OC(C(F)(F)F)C(F)(F)F)CC4)cc(C(F)(F)F)c2)C1 (centres unmarked) [Example 221]	# (# is <25%)
O=C(O)C1CCN(Cc2cc(C(F)(F)F)ccc2CN2CCCC23CCN(C(=O)OC(C(F)(F)F)C(F)(F)F)CC3)C1 (centres unmarked) [Example 262]	# (# is <25%)

target: T2, MAGL; assay: In vitro competitive activity-based protein profiling (mouse brain membrane fraction or cell lysates), MAGL band; format: biochemical; settings: 1 μM, mouse proteome; read-out: MAGL % Inh 1 μM (mouse)
Protocol: In Vitro Competitive Activity-Based Protein Profiling.
Proteomes (mouse brain membrane fraction or cell lysates) (50 μL, 1.0 mg/mL total protein concentration) were preincubated with varying concentrations of inhibitors at 37° C. After 30 min, FP—Rh (1.0 μL, 50 μM in DMSO) was added and the mixture was incubated for another 30 min at 37° C. Reactions were quenched with SDS loading buffer (50 μL-4×) and run on SDS-PAGE.

SMILES	inhibition at 1 µM [%]
O=C(O)[C@H]1CCCN(c2cc(C(F)(F)F)ccc2CN2CCCC23CCN(C(=O)OC(C(F)(F)F)C(F)(F)F)CC3)C1 [Example 217]	> 75
O=C(O)[C@@H]1CCCN(c2cc(C(F)(F)F)ccc2CN2CCCC23CCN(C(=O)OC(C(F)(F)F)C(F)(F)F)CC3)C1 [Example 214]	> 75

same assay, conditions: 1 μM, mouse; read-out: MAGL % Inh 1 μM (mouse)

SMILES	inhibition at 1 µM [%]
NC(=O)C1CCN(Cc2cc(C(F)(F)F)ccc2CN2CCCC23CCN(C(=O)OC(C(F)(F)F)C(F)(F)F)CC3)CC1 [Example 275]	> 75
O=C(O)C1CCN(Cc2cc(Cl)cc(CN3CCCC34CCN(C(=O)OC(C(F)(F)F)C(F)(F)F)CC4)c2)C1 (centres unmarked) [Example 272]	> 75
CS(=O)(=O)C1CN(c2cc(C(F)(F)F)ccc2CN2CCCC23CCN(C(=O)OC(C(F)(F)F)C(F)(F)F)CC3)C1 [Example 268]	> 75
O=C(O)C1CCN(Cc2cc(CN3CCCC34CCN(C(=O)OC(C(F)(F)F)C(F)(F)F)CC4)cc(C(F)(F)F)c2)CC1 [Example 244]	> 75
CC1(C(=O)O)CCCN(c2cc(CN3CCCC34CCN(C(=O)OC(C(F)(F)F)C(F)(F)F)CC4)cc(C(F)(F)F)c2)C1 (centres unmarked) [Example 221]	> 75
O=C(O)C1CCN(Cc2cc(C(F)(F)F)ccc2CN2CCCC23CCN(C(=O)OC(C(F)(F)F)C(F)(F)F)CC3)C1 (centres unmarked) [Example 262]	> 75

target: T3, FAAH; assay: In vitro competitive activity-based protein profiling (mouse brain membrane fraction or cell lysates), FAAH band; format: biochemical; settings: 1 μM, mouse proteome; read-out: FAAH % Inh 1 μM (mouse)
In short: as §1

SMILES	inhibition at 1 µM [%]
O=C(O)[C@H]1CCCN(c2cc(C(F)(F)F)ccc2CN2CCCC23CCN(C(=O)OC(C(F)(F)F)C(F)(F)F)CC3)C1 [Example 217]	< 25
O=C(O)[C@@H]1CCCN(c2cc(C(F)(F)F)ccc2CN2CCCC23CCN(C(=O)OC(C(F)(F)F)C(F)(F)F)CC3)C1 [Example 214]	< 25

same assay, conditions: 1 μM, mouse; read-out: FAAH % Inh 1 μM (mouse)

SMILES	inhibition at 1 µM [%]
NC(=O)C1CCN(Cc2cc(C(F)(F)F)ccc2CN2CCCC23CCN(C(=O)OC(C(F)(F)F)C(F)(F)F)CC3)CC1 [Example 275]	< 25
O=C(O)C1CCN(Cc2cc(Cl)cc(CN3CCCC34CCN(C(=O)OC(C(F)(F)F)C(F)(F)F)CC4)c2)C1 (centres unmarked) [Example 272]	< 25
CS(=O)(=O)C1CN(c2cc(C(F)(F)F)ccc2CN2CCCC23CCN(C(=O)OC(C(F)(F)F)C(F)(F)F)CC3)C1 [Example 268]	< 25
O=C(O)C1CCN(Cc2cc(CN3CCCC34CCN(C(=O)OC(C(F)(F)F)C(F)(F)F)CC4)cc(C(F)(F)F)c2)CC1 [Example 244]	< 25
CC1(C(=O)O)CCCN(c2cc(CN3CCCC34CCN(C(=O)OC(C(F)(F)F)C(F)(F)F)CC4)cc(C(F)(F)F)c2)C1 (centres unmarked) [Example 221]	< 25
O=C(O)C1CCN(Cc2cc(C(F)(F)F)ccc2CN2CCCC23CCN(C(=O)OC(C(F)(F)F)C(F)(F)F)CC3)C1 (centres unmarked) [Example 262]	< 25

target: T1, ABHD6; assay: Mouse brain proteomes from inhibitor treated mice (oral gavage, sacrificed 4 h after administration, ABPP analysis), ABHD6; format: in vivo, mouse (C57Bl/6J); settings: 5 mg/kg oral gavage
In short: as §2

SMILES	ABHD6 % Inh 5 mg/kg (mouse)
NC(=O)C1CCN(Cc2cc(C(F)(F)F)ccc2CN2CCCC23CCN(C(=O)OC(C(F)(F)F)C(F)(F)F)CC3)CC1 [Example 275]	# (# is <25%)
O=C(O)C1CCN(Cc2cc(Cl)cc(CN3CCCC34CCN(C(=O)OC(C(F)(F)F)C(F)(F)F)CC4)c2)C1 (centres unmarked) [Example 272]	# (# is <25%)
CS(=O)(=O)C1CN(c2cc(C(F)(F)F)ccc2CN2CCCC23CCN(C(=O)OC(C(F)(F)F)C(F)(F)F)CC3)C1 [Example 268]	## (## is equal to or greater than 25% but less than 75%)
O=C(O)[C@H]1CCCN(c2cc(C(F)(F)F)ccc2CN2CCCC23CCN(C(=O)OC(C(F)(F)F)C(F)(F)F)CC3)C1 [Example 217]	# (# is <25%)
O=C(O)C1CCN(Cc2cc(CN3CCCC34CCN(C(=O)OC(C(F)(F)F)C(F)(F)F)CC4)cc(C(F)(F)F)c2)CC1 [Example 244]	# (# is <25%)
O=C(O)[C@@H]1CCCN(c2cc(C(F)(F)F)ccc2CN2CCCC23CCN(C(=O)OC(C(F)(F)F)C(F)(F)F)CC3)C1 [Example 214]	# (# is <25%)
CC1(C(=O)O)CCCN(c2cc(CN3CCCC34CCN(C(=O)OC(C(F)(F)F)C(F)(F)F)CC4)cc(C(F)(F)F)c2)C1 (centres unmarked) [Example 221]	# (# is <25%)
O=C(O)C1CCN(Cc2cc(C(F)(F)F)ccc2CN2CCCC23CCN(C(=O)OC(C(F)(F)F)C(F)(F)F)CC3)C1 (centres unmarked) [Example 262]	# (# is <25%)
